Assay results from US20020090619A1, “Methods for identifying mitochondrial divalent cation transporters” (priority 2000, published 2002).

Experiments:
[1] = system: PMC1/PMR1 double ATPase mutant cells; settings: Cunningham et al., 1994; cited from earlier work
[2] = system: Saccharomyces cerevisiae strain K473; assay: Growth inhibition by Ca2+ of pmc1 mutant yeast; assay type: cell-based; settings: YPD medium, 30° C., 22 hr; read-out: 50% decrease in relative growth (IC50)
Method: This example describes growth inhibition by Ca^2+ of Saccharomyces cerevisiae strain K473, a pmc1 mutant lacking function in a vacuolar Ca2+ ATPase (Cunningham et al., 1996, Molec. Cell. Biology 16:2226-37; Cunningham et al., 1994 J. Cell Biol. 124:351-363). The strain was grown at 30° C. on standard YPD medium supplemented with 0, 50, 100, 200 or 300 mM CaCl2, as indicated. […]

[3] = system: isolated yeast mitochondria; assay: Ca2+ transport in isolated yeast mitochondria expressing aequorin (luminescence); assay type: biochemical, Saccharomyces cerevisiae; settings: FIG. 24
Method: For preculture, the transformant was inoculated into 50 ml of SC-U plus 2% glucose, and incubated in an air shaker at 180 rpm and 30° C. At 24 hr, the preculture was transferred to 500 ml of a medium containing 1% yeast extract, 2% peptone, 2% lactate, 1% galactose, 0.012% adenine, pH 5 w/NaOH, and growth was continued under conditions which were otherwise the same. Cells were harvested after an additional 24 hr, spheroplasts were prepared using zymolyase, and mitochondria were isolated by the method of Daum et al. (1982) as previously described (Jung et al., 1997). The final pellet was resuspended at ˜20 mg protein/ml in 0.6 M mannitol, 20 mM HEPES (K^+ salt, pH 6.8). Apoaequorin in the intact or disrupted mitochondria was reconstituted by incubation with coelenterazine as described above for cells.
For most experiments, the mitochondria were present at 0.4 mg protein/ml in a standard medium that contained 0.3 M KCl, 20 mM HEPES, (K^+ salt, pH 7.10), 10 mM KH2PO4, 2 mM EGTA, and 2 mM MgCl2. Other additions are described in greater detail below. Ca^2+ buffers were formed by adding various amounts of CaCl2 to this EGTA containing medium. The free Ca^2+ concentrations which resulted were calculated using a computer program (Brooks et al., 1992 Anal. Biochem. 201:119).
Luminescence measurements were carried out in 6×50 mm culture tubes, using a total volume of 0.3 ml, and were started by injection of 5-20 μl of mitochondria or cells. A SAI model 3000 integrating photometer was employed, with AJD sampling at 0.4 seconds intervals driven by Asyst software. Values were transformed into corresponding Ca^2+ concentrations by computer assisted calculations based upon published calibration methods (Allen et al., 1977 Science 195:996; Brini et al., 1995 J. Biol. Chem. 270:9896). For each value, the ratio of observed luminescence (L) to the potential luminescence remaining (Lmax) was calculated, and compared to a calibration curve which relates this ratio to the free Ca^2+ concentration. Thus, complete calibrated progress curves were generated. The total luminescence available initially (Ltotal) must be known and was determined in separate experiments, wherein a saturating Ca^2+ concentration (20 μM) is employed to discharge the aequorin completely. This value allows Lmax to be calculated at any time, as Ltotal minus the sum of luminescence that already occurred.
The calibration data were obtained at an ionic strength of 335 mM and in the presence of 1 mM Mg^2+, to mimic conditions in the mitochondrial matrix, because both factors influence the affinity of aequorin for Ca2+ (Cobbold et al., 1987 Biochem. J. 248:313). Luminescence values were corrected for low background values that are obtained when Ca^2+ is absent before conducting further calculations.

yeast mitochondria [4] = assay: Membrane potential ΔΨ of isolated yeast mitochondria (safranin O); assay type: biochemical, Saccharomyces cerevisiae
Method: (§1) The yeast strain W303-1A (Saccharomyces cerevisiae) was grown aerobically at 30° C. in a medium containing 2% lactate, 1% yeast extract, 2% peptone, 0.05% dextrose, and 0.01% adenine at pH 5.0, and cells were harvested during the logarithmic phase (A600=1.8−2.2). Mitochondria were isolated from spheroplasts as previously described (Jung et al., 1997 J. Biol. Chem. 272:21104), except that 0.6 M sucrose was used in the homogenization medium instead of 0.6 M mannitol (Daum et al., 1982 J. Biol. Chem. 257:13028). The resulting preparations were maintained on ice and were suspended in 0.6 M mannitol 20 mM HEPES (K+) (pH 6.8), containing 0.75 mg/ml BSA and 0.1 mM EGTA. Protein concentration was determined by a reduced volume Biuret method in which 50 μl of the final preparation were solubilized by adding an equal volume of 10% deoxycholate (Na+), with 0.4 ml of Biuret reagent added to the resulting mixture. BSA was employed as the standard.
Unless otherwise noted, mitochondria were incubated at 1 mg protein/ml and at approximately 25° C. in a medium that contained 0.6 M mannitol, 10 mM Pi (K+), 10 mM Hepes (TEA+), pH 7.2, plus 1 mM ethanol as an oxidizable substrate. Compounds having a low solubility in water were added from stock solutions prepared in methanol or DMSO. Ca2+ transport and membrane potential were monitored using the indicating dyes antipyrylazo III (ΔA720-790) and safranin O (ΔA511-533), respectively (Akerman et al., 1976 FEBS Lett. 68:191; Scarpa et al., 1978 Biochem. 17:1378). An SLM Aminco DW-2C spectrophotometer operated in the dual wavelength mode was employed for these purposes. The same instrument, operated in split beam mode, was used to monitor mitochondrial swelling as a decrease in apparent absorbance of mitochondrial suspensions at 540 nm. Oxygen consumption data were obtained using a Clark-type electrode in parallel experiments. Atomic absorption spectroscopy was utilized to monitor the transport of other cations by yeast mitochondria. Briefly, samples were taken at appropriate times and the mitochondria were rapidly sedimented in a microcentrifuge. After carefully removing supernatants, the pellets were solubilized with 2 N percholoric acid (overnight) and centrifuged a second time. The resulting supernatants were diluted with an appropriate volume of distilled water and the concentration of the cation in question was subsequently determined.

yeast mitochondria [5] = assay: ETH 129 mediated Ca2+ transport in isolated yeast mitochondria (antipyrylazo III); assay type: biochemical, Saccharomyces cerevisiae; settings: BSA 0.5 mg/ml, 60 μM CaCl2, 3.6 μM ETH 129, increasing oleate, FIG. 14
Method: as §1, with “BSA was employed as the standard.” left out
Unless otherwise noted, mitochondria were incubated at 1 mg protein/ml and at approximately 25° C. in a medium that contained 0.6 M mannitol, 10 mM Pi (K+), 10 mM Hepes (TEA+), pH 7.2, plus 1 mM ethanol as an oxidizable substrate. […] Ca2+ transport and membrane potential were monitored using the indicating dyes antipyrylazo III (ΔA720-790) and safranin O (ΔA511-533), respectively (Akerman et al., 1976 FEBS Lett. 68:191; Scarpa et al., 1978 Biochem. 17:1378). […]

[6] = ETH 129 mediated cation transport into Quin-2 loaded POPC vesicles; assay type: biochemical; settings: 1.0 mM CaCl2, no Val, FIG. 5
Method: Unilamellar vesicles loaded with Quin-2 were prepared from 1-palmitoyl-2-oleoyl-sn-glycerophosphatidylcholine (POPC) by freeze-thaw extrusion (Erdahl et al., 1994 Biophys. J. 66:1678; Erdahl et al., 1995 Biophys. J. 69:2350). The formation medium contained 5 mM Quin-2 (K+), 10 mM Hepes (K+), pH 7.00, and 100 mM KCl. A high internal K+ concentration was sought to allow the generation of membrane potentials of varying magnitude (see below). The preparations obtained were applied to Sephadex™ G-50 mini-columns (Pharmacia, Piscataway N.J.) and eluted by low speed centrifugation (Fry et al., 1978 Anal. Biochem. 90:809), to replace the external medium with a 10 mM Hepes buffer (Na+), pH 7.00 (Erdahl et al., 1994 Biophys. J. 66:1678; Erdahl et al., 1995 Biophys. J. 69:2350). The nominal concentration of POPC in final preparations was determined as lipid phosphorus (Bartlett, 1959 J Biol. Chem. 234:466) and was near 80 mM. The average diameter of these vesicles was 71 nm as determined by freeze-fracture electron microscopy (Chapman et al., 1990 Chem. Phys. Lipids 55:73). They contained entrapped K+ at approximately 125 mM, as determined by atomic absorption spectroscopy, and Quin-2 at approximately 6 mM. The latter value was determined by titrating lysed vesicles with a standard solution of CaCl2 and was about one third of the expected value (Erdahl et al., 1995 Bipohys. J. 69:3250). The high solute level in the formation medium reduced the efficiency of Quin-2 entrapment by reducing the effectiveness of a freeze-thaw driven solute concentrating mechanism that normally elevates the internal concentrations of solutes, relative to the external medium (Chapman et al., 1990 Chem. Phys. Lipids 55:73; Chapman et al., 1990 Chem. Phys. Lipids 60:201).
POPC vesicles containing Quin-2 were utilized at a nominal phospholipid concentration of 1.0 mM, and at 25° C. The external medium contained polyvalent cation salts as described below, 100 mM NaCl, or mixtures of NaCl and KCl totaling […], and 10 mM Hepes, pH 7.00, unless otherwise noted. The medium pH was adjusted with NaOH that had been passed over Chelex 100 columns to remove contaminating cations (Erdahl et al., 1994 Biophys. J. 66:1678). In most cases an inside negative membrane electrical potential was present during the experiments. This was generated by the presence of 0.5 μM valinomycin (Val), which transports K+ out of the vesicles electrogenically (Erdahl et al., 1994 Biophys. J. 66:1678). The magnitude of the potential was controlled by varying the concentration ratio of Na+ to K+ in the external medium. A TPP+electrode was used to measure the potential (Broekemeier et al, 1998 Biochem. 37:13059), and thereby to verify that the calculated values were obtained. For these purposes the incubation medium contained 2.0 μM TPP.Cl and the entrapped volume was taken to be 2.02 μl/ml at a nominal POPC concentration of 1.0 mM (Chapman et al., 1990 Chem. Phys. Lipids 55:73).
Val was omitted when an imposed membrane potential was not desired, or in some cases 5 μM of the protonophore carbonyl cyanide m-chlorophenylhydrazone (CCP) was present instead of Val.
The transport of polyvalent cations was monitored by difference absorbance measurements which detected formation of the Quin-2:cation complex within the vesicle lumen. An Aminco DW2a spectrophotometer operated in the dual wavelength mode was employed. In addition, an Oriel No. 59800 band pass filter was used between the cuvette and the beam scrambler-photomultiplier assembly to prevent detection of the fluorescent light emitted by Quin-2. The sample wavelength for all cations was 264 nm. The reference wavelengths were at an isosbestic point in the Quin-2/Quin-2:cation complex difference spectrum of interest. These wavelengths varied slightly from cation to cation, as previously described (Erdahl et al., 1996 Biochem. 35:13817). […]

**Q.** Which results are given for `[Ca+2]` [Ca2+]?
**A.** cytostatic Ca^2+ concentrations [1]: ≤ 300 µM; IC50 [2]: 92 mM; external Ca2+ giving half-maximal rate of change in matrix Ca^2+ ([3]; nonrespiring mitochondria): 0.82 µM; external Ca2+ giving half-maximal rate of change in matrix Ca^2+ ([3]; respiring mitochondria (0.5 mM ethanol)): 1.0 µM; effect on ΔΨ, agent alone (yeast mitochondria [4]; BSA absent, FIG. 11B): little effect

**Q.** For `CCCCCCCC/C=C\CCCCCCCC(=O)O` [oleate, oleic acid], which “effect of exogenous oleate on ETH 129 mediated Ca2+ accumulation” value (yeast mitochondria [5]) is on record?
**A.** first inhibited further accumulation and then caused a reversal of the transport that had already occurred

**Q.** What about the “activation of ETH 129 mediated Ca2+ transport” value [6] of the same compound?
**A.** inability of oleate (a lipophilic fatty acid anion) to substitute for CCP

**Q.** What about the “suppression of ΔΨ during titration with exogenous oleate” value (yeast mitochondria [4]; ETH 129, free Ca2+ and BSA available, no EGTA, FIG. 16) of the same compound?
**A.** began immediately

**Q.** And the “oleate level above which ΔΨ is depressed” value (yeast mitochondria [4]; excess EGTA (2 mM), ETH 129, CaCl2, BSA present, FIG. 16)?
**A.** exceeded 15 nmol/mg protein
